Experimental data from PubChem BioAssay (NCI).
Where “and” joins values, the source holds several entries; their conditions need not be identical. Equal entries are not always repeated.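 48-hour exposure; five concentrations; linearly interpolated endpoints. GI50 marks 50% less growth. Definition used: TGI = concentration required for complete inhibition of growth.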

How the values were obtained:
Experiment in all cases: growth of human tumour cells (NCI), 48 h
[1] = tested on: NCI/ADR-RES ovarian
[2] = tested on: SF-539 CNS
[3] = tested on: A549 NSCLC
[4] = tested on: SK-MEL-2 melanoma
[5] = tested on: UACC-62 melanoma
[6] = tested on: SN12C renal
[7] = tested on: LOX IMVI melanoma
[8] = tested on: HS 578T breast
[9] = tested on: A498 renal
[10] = tested on: MDA-MB-435

Question: `COc1ccc(/C(=C/c2ccc3ccccc3c2)c2nn[nH]n2)cc1OC` was tested. Which GI50 [1] did it give?
Answer: 1.03 µM

Question: What about the TGI [1] of the same compound?
Answer: > 100 µM

Question: What about the GI50 [2] of the same compound?
Answer: 2.38 µM

Question: What about the TGI [2] of the same compound?
Answer: 7.94 µM

Question: What about the GI50 [3] of the same compound?
Answer: 3.8 µM

Question: And the TGI [3]?
Answer: > 100 µM

Question: And the GI50 [4]?
Answer: 4.36 µM

Question: What about the TGI [4] of the same compound?
Answer: > 100 µM

Question: And the GI50 [5]?
Answer: 0.867 µM

Question: What about the TGI [5] of the same compound?
Answer: > 100 µM

Question: And the GI50 [6]?
Answer: 9.97 µM

Question: And the TGI [6]?
Answer: > 100 µM

Question: What about the GI50 [7] of the same compound?
Answer: 5.63 µM

Question: What about the TGI [7] of the same compound?
Answer: > 100 µM

Question: What about the GI50 [8] of the same compound?
Answer: 2.23 µM

Question: What about the TGI [8] of the same compound?
Answer: 53.6 µM

Question: What does the source list for `CN(C)c1ccc(/C=C(\C#N)c2ccccc2)cc1`?
Answer: GI50 [1]: 0.348 µM and 0.395 µM and 0.324 µM; TGI [1]: 49.9 µM and > 100 µM and 74.1 µM; GI50 [2]: 0.324 µM and 0.481 µM; TGI [2]: 1.34 µM and 4.48 µM; GI50 [3]: 0.73 µM and 0.796 µM and 0.691 µM; TGI [3]: > 100 µM; GI50 [4]: 0.453 µM and 0.465 µM; TGI [4]: > 100 µM; GI50 [9]: 0.633 µM and 0.281 µM and 0.316 µM; GI50 [5]: 0.312 µM and 0.36 µM and 0.52 µM; TGI [5]: > 100 µM; GI50 [10]: 0.0424 µM and 0.192 µM and 0.13 µM; GI50 [6]: 0.553 µM and 0.788 µM and 0.764 µM; TGI [6]: > 100 µM; GI50 [7]: 0.777 µM and 0.605 µM and 0.404 µM; TGI [7]: > 100 µM and 43.1 µM

Question: With `N#CC(C(=O)/C(=N/NC(=O)c1ccccc1O)C(C#N)c1ccc(Br)cc1)c1ccc(Br)cc1` (stereo not drawn) as the compound, how does the TGI [2] read?
Answer: 25.3 µM

Question: What about the TGI [3] of the same compound?
Answer: 39.9 µM

Question: What about the TGI [4] of the same compound?
Answer: 25 µM

Question: What about the TGI [9] of the same compound?
Answer: 26.8 µM

Question: And the TGI [5]?
Answer: 28.2 µM

Question: What about the TGI [6] of the same compound?
Answer: 21.9 µM

Question: And the TGI [7]?
Answer: 23 µM

Question: Which GI50 [1] does the source give for `COc1cccc(CCNC(=O)CC(c2ccccc2)(c2ccccc2)c2ccccc2)c1` here?
Answer: 5.26 µM

Question: What about the TGI [1] of the same compound?
Answer: > 100 µM

Question: What about the GI50 [3] of the same compound?
Answer: 4.11 µM

Question: And the TGI [3]?
Answer: 96.5 µM

Question: And the GI50 [4]?
Answer: 4.41 µM

Question: What about the TGI [4] of the same compound?
Answer: > 100 µM

Question: What about the GI50 [5] of the same compound?
Answer: 0.613 µM

Question: What about the TGI [5] of the same compound?
Answer: > 100 µM

Question: What about the GI50 [10] of the same compound?
Answer: 6.5 µM

Question: What about the TGI [10] of the same compound?
Answer: > 100 µM

Question: And the GI50 [8]?
Answer: > 100 µM

Question: What about the TGI [8] of the same compound?
Answer: > 100 µM

Question: How did the GI50 [1] turn out when `COc1ccc(C2CC(c3ccccc3)=NN2C(=O)c2cc(OC)c(OC)c(OC)c2)cc1O` (stereo not drawn) was run?
Answer: 0.552 µM

Question: And the GI50 [2]?
Answer: 0.288 µM

Question: What about the TGI [2] of the same compound?
Answer: 1.31 µM

Question: And the GI50 [3]?
Answer: 0.545 µM

Question: What about the TGI [3] of the same compound?
Answer: > 100 µM

Question: What about the GI50 [4] of the same compound?
Answer: 4.74 µM

Question: And the TGI [4]?
Answer: > 42 µM

Question: What about the GI50 [9] of the same compound?
Answer: 0.618 µM

Question: And the TGI [9]?
Answer: 19.4 µM

Question: And the GI50 [5]?
Answer: 0.269 µM

Question: And the TGI [5]?
Answer: 15.8 µM

Question: And the GI50 [6]?
Answer: 0.766 µM

Question: What about the TGI [6] of the same compound?
Answer: 34.4 µM

Question: And the GI50 [7]?
Answer: 0.611 µM

Question: And the TGI [7]?
Answer: 15.6 µM

Question: What about the GI50 [8] of the same compound?
Answer: 0.316 µM

Question: And the TGI [8]?
Answer: 1.13 µM

Question: Which TGI [2] does the source give for `COC(=O)C(=NNc1ccccc1[N+](=O)[O-])C(=O)OC` here?
Answer: > 100 µM

Question: And the TGI [3]?
Answer: > 100 µM

Question: What about the TGI [4] of the same compound?
Answer: > 100 µM

Question: And the TGI [9]?
Answer: > 100 µM

Question: And the TGI [6]?
Answer: > 100 µM

Question: And the TGI [7]?
Answer: > 100 µM

Question: With `O=C[C@]12CC=C3OC4OC5(CCCCC5)OC4[C@H]3[C@H]1C(=O)C=CC2=O` (stereo partly drawn) as the compound, how does the TGI [2] read?
Answer: 13.4 µM

Question: What about the TGI [3] of the same compound?
Answer: > 100 µM

Question: And the TGI [4]?
Answer: > 100 µM

Question: And the TGI [9]?
Answer: > 100 µM

Question: What about the TGI [5] of the same compound?
Answer: 52.6 µM

Question: What about the TGI [6] of the same compound?
Answer: > 100 µM

Question: Which GI50 [2] does the source give for `N.N.N.N.N.N#Cc1nn[n-]n1.[Cl-].[Co+3]` here?
Answer: > 100 µM

Question: What about the TGI [2] of the same compound?
Answer: > 100 µM

Question: What about the GI50 [3] of the same compound?
Answer: > 100 µM

Question: What about the TGI [3] of the same compound?
Answer: > 100 µM

Question: And the GI50 [4]?
Answer: > 100 µM

Question: What about the TGI [4] of the same compound?
Answer: > 100 µM

Question: What about the GI50 [5] of the same compound?
Answer: > 100 µM

Question: What about the TGI [5] of the same compound?
Answer: > 100 µM

Question: And the GI50 [6]?
Answer: > 100 µM

Question: And the TGI [6]?
Answer: > 100 µM

Question: And the GI50 [7]?
Answer: > 100 µM

Question: What about the TGI [7] of the same compound?
Answer: > 100 µM

Question: `CCC(C)C(=O)O[C@H]1C(=O)O[C@@H]2C[C@H]3C(C)=CC(=O)[C@@H](O)[C@]3(C)[C@H]3[C@@H](O)[C@H](O)[C@@]4(C)OC[C@]32[C@@H]14` (stereo partly drawn) was tested. Which TGI [2] did it give?
Answer: 0.0334 µM

Question: And the TGI [3]?
Answer: 10.7 µM

Question: And the TGI [4]?
Answer: < 0.0507 µM

Question: What about the TGI [9] of the same compound?
Answer: < 0.01 µM

Question: What about the TGI [5] of the same compound?
Answer: < 0.0434 µM

Question: What about the TGI [10] of the same compound?
Answer: < 0.01 µM

Question: And the TGI [6]?
Answer: < 0.0135 µM

Question: And the TGI [7]?
Answer: < 0.0246 µM

Question: What about the TGI [8] of the same compound?
Answer: < 0.01 µM

Question: What does the source list for `N#CCCN(C1=NN(C(=O)CC(=O)Nc2ccc(Cl)cc2)C(c2ccccc2)C1)c1ccc(Cl)cc1` (stereo not drawn)?
Answer: TGI [2]: > 100 µM; TGI [3]: > 100 µM; TGI [4]: > 100 µM; TGI [9]: > 100 µM; TGI [5]: > 100 µM; TGI [6]: > 100 µM; TGI [7]: > 100 µM
